From PMC12344758, “Qsarna: An Online Tool for Smart Chemical Space Navigation in Drug Design” (Journal of Chemical Information and Modeling, 2025) come the findings set out here.

For the first assay, the target named is T1, MAO-B (Homo sapiens, UniProt P27338).
T1 construct: purchased Merck MAK296
T1 sequence (P27338 1-520): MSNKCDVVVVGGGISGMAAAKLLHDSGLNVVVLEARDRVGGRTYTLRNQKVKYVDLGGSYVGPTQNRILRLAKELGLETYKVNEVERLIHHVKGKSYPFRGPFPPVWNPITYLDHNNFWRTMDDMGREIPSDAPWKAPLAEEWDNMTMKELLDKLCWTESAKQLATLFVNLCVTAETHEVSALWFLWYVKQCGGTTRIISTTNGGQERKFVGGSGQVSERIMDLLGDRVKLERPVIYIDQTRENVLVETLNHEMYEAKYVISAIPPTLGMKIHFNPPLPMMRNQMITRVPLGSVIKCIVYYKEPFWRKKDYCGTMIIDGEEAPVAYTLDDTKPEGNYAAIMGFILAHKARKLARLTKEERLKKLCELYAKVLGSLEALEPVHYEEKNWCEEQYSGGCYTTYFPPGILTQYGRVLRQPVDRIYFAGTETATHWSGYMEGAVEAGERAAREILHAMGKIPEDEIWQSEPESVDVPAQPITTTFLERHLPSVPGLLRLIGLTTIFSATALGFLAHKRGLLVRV
Nature of the assay: Monoamine Oxidase-B Inhibitor Screening Kit (Merck, MAK296), fluorometric assay. The assay is classed as biochemical. The settings on record: concentration 1 uM. On the procedure: (§1) The experimental details for determining IC50 are presented in Supporting Information B.
(§2) To evaluate the IC50 of inhibitors, two fluorometric assays were used: the Monoamine Oxidase-A Inhibitor Screening Kit and the Monoamine Oxidase-B Inhibitor Screening Kit (Merck), according to the manufacturer’s protocol. The Echo dose-response software was used to prepare the plates. The compounds were tested at 10 concentrations, starting from 100 µM with a dilution factor of 3.16. All compounds were tested in duplicate in a final concentration of 1% of DMSO. Using a Mantis Liquid Dispenser (Formulatrix), 12.5 µL of protein was added to each tested compound (final concentration of 56 nM) and incubated for 60 minutes at 25°C (MAO-A) or 60 minutes at 37°C (MAO-B). Subsequently, the enzymatic reaction was initiated by adding 10 µL of substrate per well, followed by incubation for 60 minutes at 25°C (MAO-A) or 60 minutes at 37°C (MAO-B). The fluorescence intensity was measured using a plate reader (BioTek Synergy H1) with the following settings: excitation at 535 nm and emission at 587 nm. The data were normalized against low control (assay buffer […]
(§3) (1 picture or pasted object on this page, not shown here) […]
(§4) containing substrate) and high control (protein and substrate). The results were presented as a percentage of inhibition. […]
As for `Cc1cc(=O)oc2c(C)c(OCc3nnc(S)n3-c3ccc(Br)cc3)ccc12` [MolPort-002-847-536], the inhibition – broadly, the change of the read-out against control, counted positive when it falls – at 1 µM was 11.9%.

Turning to `COc1ccc(C2SCC(=O)N2NC(=O)COc2ccc3c(C)cc(=O)oc3c2)cc1` (stereo not drawn) [MolPort-002-546-020], the inhibition at 1 µM was 0%.

As to `O=c1oc2cc(OCc3cccc(Cl)c3)ccc2c2c1CCC2` [MolPort-000-651-742], the inhibition at 1 µM was 91.3%.

Take `Cc1csc(N/N=C/c2cc(Cl)ccc2Cl)n1` [MolPort-000-660-156]: the inhibition at 1 µM amounted to 3.45%.

On to `O=c1c(-c2ccccc2)coc2cc(O)cc(O)c12` [MolPort-003-665-835], for which the inhibition at 1 µM is 0%.

As for `Cc1cc(=O)oc2cc(OCC(=O)N/N=C/c3ccccc3)ccc12` [MolPort-002-548-000], the inhibition at 1 µM stood at 0%.

`O=C(Nc1ccc(Cl)cc1)C1=Cc2ccccc2OC1` [MolPort-000-686-585]: the inhibition at 1 µM turned out to be 0%.

For the molecule `Cc1ccc(/C=N/Nc2nc3ccccc3nc2Cc2ccccc2)cc1` [Molport-002-863-179], the inhibition at 1 µM turned out to be 0%.

On to `Clc1ccc(/C=N/c2ccc3[nH]ncc3c2)c(Cl)c1` [MolPort-002-945-866], for which the inhibition at 1 µM worked out at 0%.

The same assay, now with this note: concentration 10 uM.
Take `Cc1cc(=O)oc2c(C)c(OCc3nnc(S)n3-c3ccc(Br)cc3)ccc12` [MolPort-002-847-536]: the inhibition at 10 µM turned out to be 30.3%.

Turning to `COc1ccc(C2SCC(=O)N2NC(=O)COc2ccc3c(C)cc(=O)oc3c2)cc1` (stereo not drawn) [MolPort-002-546-020], the inhibition at 10 µM is 0%.

Consider `O=c1oc2cc(OCc3cccc(Cl)c3)ccc2c2c1CCC2` [MolPort-000-651-742], for which the inhibition at 10 µM was found to be 98.4%.

Regarding `Cc1csc(N/N=C/c2cc(Cl)ccc2Cl)n1` [MolPort-000-660-156], the inhibition at 10 µM was 0.34%.

Take `O=c1c(-c2ccccc2)coc2cc(O)cc(O)c12` [MolPort-003-665-835]: the inhibition at 10 µM is 39.8%.

Regarding `Cc1cc(=O)oc2cc(OCC(=O)N/N=C/c3ccccc3)ccc12` [MolPort-002-548-000], the inhibition at 10 µM came out at 0%.

For `O=C(Nc1ccc(Cl)cc1)C1=Cc2ccccc2OC1` [MolPort-000-686-585], the inhibition at 10 µM amounted to 51.7%.

Consider `Cc1ccc(/C=N/Nc2nc3ccccc3nc2Cc2ccccc2)cc1` [Molport-002-863-179], for which the inhibition at 10 µM was 0%.

As to `Clc1ccc(/C=N/c2ccc3[nH]ncc3c2)c(Cl)c1` [MolPort-002-945-866], the inhibition at 10 µM was 32.5%.

Staying with this assay, now noted: concentration 100 uM.
`Cc1cc(=O)oc2c(C)c(OCc3nnc(S)n3-c3ccc(Br)cc3)ccc12` [MolPort-002-847-536]: the inhibition at 100 µM came to 105%.

Regarding `COc1ccc(C2SCC(=O)N2NC(=O)COc2ccc3c(C)cc(=O)oc3c2)cc1` (stereo not drawn) [MolPort-002-546-020], the inhibition at 100 µM is 46.3%.

On to `O=c1oc2cc(OCc3cccc(Cl)c3)ccc2c2c1CCC2` [MolPort-000-651-742], for which the inhibition at 100 µM was 98%.

Take `Cc1csc(N/N=C/c2cc(Cl)ccc2Cl)n1` [MolPort-000-660-156]: the inhibition at 100 µM was determined as 39.5%.

As for `O=c1c(-c2ccccc2)coc2cc(O)cc(O)c12` [MolPort-003-665-835], the inhibition at 100 µM worked out at 87.3%.

For `Cc1cc(=O)oc2cc(OCC(=O)N/N=C/c3ccccc3)ccc12` [MolPort-002-548-000], the inhibition at 100 µM turned out to be 0%.

As for `O=C(Nc1ccc(Cl)cc1)C1=Cc2ccccc2OC1` [MolPort-000-686-585], the inhibition at 100 µM was found to be 91.2%.

Regarding `Cc1ccc(/C=N/Nc2nc3ccccc3nc2Cc2ccccc2)cc1` [Molport-002-863-179], the inhibition at 100 µM was determined as 0%.

As for `Clc1ccc(/C=N/c2ccc3[nH]ncc3c2)c(Cl)c1` [MolPort-002-945-866], the inhibition at 100 µM is 84.4%.

Still in this assay, the particulars now being: secondary screen, 10 concentrations from 100 µM, duplicate.
As to `Cc1cc(=O)oc2c(C)c(OCc3nnc(S)n3-c3ccc(Br)cc3)ccc12` [MolPort-002-847-536], the IC50 (as a rule, the concentration needed to halve the response being measured) was determined as 2.32 µM.

Regarding `O=c1oc2cc(OCc3cccc(Cl)c3)ccc2c2c1CCC2` [MolPort-000-651-742], the IC50 was 0.00976 µM.

For the molecule `O=c1c(-c2ccccc2)coc2cc(O)cc(O)c12` [MolPort-003-665-835], the IC50 came to 2.83 µM.

`O=C(Nc1ccc(Cl)cc1)C1=Cc2ccccc2OC1` [MolPort-000-686-585]: the IC50 turned out to be 10.3 µM.

`Clc1ccc(/C=N/c2ccc3[nH]ncc3c2)c(Cl)c1` [MolPort-002-945-866]: the IC50 was determined as 32.4 µM.

A further assay has as its target T2, MAO-A (Homo sapiens, UniProt P21397).
T2 construct: purchased Merck MAK295
T2 sequence (P21397 1-527): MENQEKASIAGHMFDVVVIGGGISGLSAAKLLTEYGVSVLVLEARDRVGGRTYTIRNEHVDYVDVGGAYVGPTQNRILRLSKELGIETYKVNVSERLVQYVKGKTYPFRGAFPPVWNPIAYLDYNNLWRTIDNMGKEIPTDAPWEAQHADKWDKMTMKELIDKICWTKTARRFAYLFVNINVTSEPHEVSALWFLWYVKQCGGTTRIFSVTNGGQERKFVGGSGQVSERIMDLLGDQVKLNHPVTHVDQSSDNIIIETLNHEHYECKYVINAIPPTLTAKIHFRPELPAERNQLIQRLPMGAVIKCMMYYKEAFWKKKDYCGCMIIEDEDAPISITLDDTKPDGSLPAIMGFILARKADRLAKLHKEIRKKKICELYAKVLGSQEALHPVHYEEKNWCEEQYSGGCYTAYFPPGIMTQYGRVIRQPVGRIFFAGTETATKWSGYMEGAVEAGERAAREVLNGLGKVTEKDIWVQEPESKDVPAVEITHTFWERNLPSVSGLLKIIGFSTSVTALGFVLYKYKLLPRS
Nature of the assay: Monoamine Oxidase-A Inhibitor Screening Kit (Merck, MAK295), fluorometric assay. The assay is classed as biochemical. To be noted: concentration 1 uM. On the procedure:
as §1, §2, §3, §4
For `Cc1cc(=O)oc2c(C)c(OCc3nnc(S)n3-c3ccc(Br)cc3)ccc12` [MolPort-002-847-536], the inhibition at 1 µM came to 0%.

For `COc1ccc(C2SCC(=O)N2NC(=O)COc2ccc3c(C)cc(=O)oc3c2)cc1` (stereo not drawn) [MolPort-002-546-020], the inhibition at 1 µM was determined as 0%.

Turning to `O=c1oc2cc(OCc3cccc(Cl)c3)ccc2c2c1CCC2` [MolPort-000-651-742], the inhibition at 1 µM amounted to 4.35%.

Consider `Cc1csc(N/N=C/c2cc(Cl)ccc2Cl)n1` [MolPort-000-660-156], for which the inhibition at 1 µM is 10.8%.

Consider `O=c1c(-c2ccccc2)coc2cc(O)cc(O)c12` [MolPort-003-665-835], for which the inhibition at 1 µM is 0%.

Regarding `Cc1cc(=O)oc2cc(OCC(=O)N/N=C/c3ccccc3)ccc12` [MolPort-002-548-000], the inhibition at 1 µM was determined as 0%.

As for `O=C(Nc1ccc(Cl)cc1)C1=Cc2ccccc2OC1` [MolPort-000-686-585], the inhibition at 1 µM was 0%.

As for `Cc1ccc(/C=N/Nc2nc3ccccc3nc2Cc2ccccc2)cc1` [Molport-002-863-179], the inhibition at 1 µM came to 0%.

For `Clc1ccc(/C=N/c2ccc3[nH]ncc3c2)c(Cl)c1` [MolPort-002-945-866], the inhibition at 1 µM was 7.2%.

The assay is the same for the next values; noted with them: concentration 10 uM.
For the molecule `Cc1cc(=O)oc2c(C)c(OCc3nnc(S)n3-c3ccc(Br)cc3)ccc12` [MolPort-002-847-536], the inhibition at 10 µM came to 17.7%.

On to `COc1ccc(C2SCC(=O)N2NC(=O)COc2ccc3c(C)cc(=O)oc3c2)cc1` (stereo not drawn) [MolPort-002-546-020], for which the inhibition at 10 µM was found to be 0%.

`O=c1oc2cc(OCc3cccc(Cl)c3)ccc2c2c1CCC2` [MolPort-000-651-742]: the inhibition at 10 µM turned out to be 0%.

As for `Cc1csc(N/N=C/c2cc(Cl)ccc2Cl)n1` [MolPort-000-660-156], the inhibition at 10 µM came to 24.3%.

As to `O=c1c(-c2ccccc2)coc2cc(O)cc(O)c12` [MolPort-003-665-835], the inhibition at 10 µM turned out to be 0%.

As to `Cc1cc(=O)oc2cc(OCC(=O)N/N=C/c3ccccc3)ccc12` [MolPort-002-548-000], the inhibition at 10 µM worked out at 0%.

With `O=C(Nc1ccc(Cl)cc1)C1=Cc2ccccc2OC1` [MolPort-000-686-585], the inhibition at 10 µM is 0%.

Consider `Cc1ccc(/C=N/Nc2nc3ccccc3nc2Cc2ccccc2)cc1` [Molport-002-863-179], for which the inhibition at 10 µM was determined as 0%.

Turning to `Clc1ccc(/C=N/c2ccc3[nH]ncc3c2)c(Cl)c1` [MolPort-002-945-866], the inhibition at 10 µM turned out to be 26.1%.

Still in this assay, the particulars now being: concentration 100 uM.
Turning to `Cc1cc(=O)oc2c(C)c(OCc3nnc(S)n3-c3ccc(Br)cc3)ccc12` [MolPort-002-847-536], the inhibition at 100 µM worked out at 84.1%.

Turning to `COc1ccc(C2SCC(=O)N2NC(=O)COc2ccc3c(C)cc(=O)oc3c2)cc1` (stereo not drawn) [MolPort-002-546-020], the inhibition at 100 µM amounted to 0%.

`O=c1oc2cc(OCc3cccc(Cl)c3)ccc2c2c1CCC2` [MolPort-000-651-742]: the inhibition at 100 µM is 0%.

For `Cc1csc(N/N=C/c2cc(Cl)ccc2Cl)n1` [MolPort-000-660-156], the inhibition at 100 µM was 46.7%.

Regarding `O=c1c(-c2ccccc2)coc2cc(O)cc(O)c12` [MolPort-003-665-835], the inhibition at 100 µM was found to be 0%.

For the molecule `Cc1cc(=O)oc2cc(OCC(=O)N/N=C/c3ccccc3)ccc12` [MolPort-002-548-000], the inhibition at 100 µM is 0%.

Regarding `O=C(Nc1ccc(Cl)cc1)C1=Cc2ccccc2OC1` [MolPort-000-686-585], the inhibition at 100 µM came out at 0%.

Consider `Cc1ccc(/C=N/Nc2nc3ccccc3nc2Cc2ccccc2)cc1` [Molport-002-863-179], for which the inhibition at 100 µM amounted to 0%.

Turning to `Clc1ccc(/C=N/c2ccc3[nH]ncc3c2)c(Cl)c1` [MolPort-002-945-866], the inhibition at 100 µM is 7.8%.

The same assay, now with this note: secondary screen, 10 concentrations from 100 µM, duplicate.
For `Cc1cc(=O)oc2c(C)c(OCc3nnc(S)n3-c3ccc(Br)cc3)ccc12` [MolPort-002-847-536], the IC50 stood at 31.9 µM.
